Laboratory results as given in patent US12612409B2, “Pyrrolopyrimidines as CFTR potentiators” (Cystic Fibrosis Foundation, priority 2016, dated 2026).

Legend:
[1] = biological target: T1, CFTR in F508del/F508del primary CF hBE cells (Homo sapiens, UniProt P13569, DEL508-508); assay: Ussing chamber electrophysiology assay of CFTR potentiation in F508del/F508del CF bronchial epithelial cells (27° C.); type: cell-based
T1 construct: Primary cystic fibrosis human bronchial epithelial (CF hBE) cells were expanded and cultured; endogenous in cells; host or cells: primary CF human bronchial epithelial cells, genotype F508del/F508del
Procedure, shortened: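 Short-circuit current was recorded under zero-voltage clamp across primary CF bronchial epithelia cultured >30 days at air/liquid interface, bathed apically and basolaterally in HEPES-buffered saline. Sequential additions: amiloride (30 uM), forskolin (10 uM), compound at 4 increasing levels, CFTRinh-172 (20 uM). Responses normalised between DMSO (0%) and maximal positive-control potentiator (100%).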

[2] = biological target: T2, recombinant F508del V470 CFTR in Fischer rat thyroid (FRT) cells (Homo sapiens, UniProt P13569, DEL508-508); assay: FRT ion flux assay of F508del CFTR potentiation; type: cell-based; settings: FRT cells expressing F508del V470 CFTR, forskolin 20 uM, 27° C. pre-incubation
T2 construct: expressed in transfected cells
Procedure, shortened: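 Potentiation read as YFP quench ~21 s after iodide buffer addition, as second/initial fluorescence ratio normalised between DMSO (0%) and reference potentiator (100%).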

T1 sequence (P13569 with tags, fused parts or gaps DEL508-508): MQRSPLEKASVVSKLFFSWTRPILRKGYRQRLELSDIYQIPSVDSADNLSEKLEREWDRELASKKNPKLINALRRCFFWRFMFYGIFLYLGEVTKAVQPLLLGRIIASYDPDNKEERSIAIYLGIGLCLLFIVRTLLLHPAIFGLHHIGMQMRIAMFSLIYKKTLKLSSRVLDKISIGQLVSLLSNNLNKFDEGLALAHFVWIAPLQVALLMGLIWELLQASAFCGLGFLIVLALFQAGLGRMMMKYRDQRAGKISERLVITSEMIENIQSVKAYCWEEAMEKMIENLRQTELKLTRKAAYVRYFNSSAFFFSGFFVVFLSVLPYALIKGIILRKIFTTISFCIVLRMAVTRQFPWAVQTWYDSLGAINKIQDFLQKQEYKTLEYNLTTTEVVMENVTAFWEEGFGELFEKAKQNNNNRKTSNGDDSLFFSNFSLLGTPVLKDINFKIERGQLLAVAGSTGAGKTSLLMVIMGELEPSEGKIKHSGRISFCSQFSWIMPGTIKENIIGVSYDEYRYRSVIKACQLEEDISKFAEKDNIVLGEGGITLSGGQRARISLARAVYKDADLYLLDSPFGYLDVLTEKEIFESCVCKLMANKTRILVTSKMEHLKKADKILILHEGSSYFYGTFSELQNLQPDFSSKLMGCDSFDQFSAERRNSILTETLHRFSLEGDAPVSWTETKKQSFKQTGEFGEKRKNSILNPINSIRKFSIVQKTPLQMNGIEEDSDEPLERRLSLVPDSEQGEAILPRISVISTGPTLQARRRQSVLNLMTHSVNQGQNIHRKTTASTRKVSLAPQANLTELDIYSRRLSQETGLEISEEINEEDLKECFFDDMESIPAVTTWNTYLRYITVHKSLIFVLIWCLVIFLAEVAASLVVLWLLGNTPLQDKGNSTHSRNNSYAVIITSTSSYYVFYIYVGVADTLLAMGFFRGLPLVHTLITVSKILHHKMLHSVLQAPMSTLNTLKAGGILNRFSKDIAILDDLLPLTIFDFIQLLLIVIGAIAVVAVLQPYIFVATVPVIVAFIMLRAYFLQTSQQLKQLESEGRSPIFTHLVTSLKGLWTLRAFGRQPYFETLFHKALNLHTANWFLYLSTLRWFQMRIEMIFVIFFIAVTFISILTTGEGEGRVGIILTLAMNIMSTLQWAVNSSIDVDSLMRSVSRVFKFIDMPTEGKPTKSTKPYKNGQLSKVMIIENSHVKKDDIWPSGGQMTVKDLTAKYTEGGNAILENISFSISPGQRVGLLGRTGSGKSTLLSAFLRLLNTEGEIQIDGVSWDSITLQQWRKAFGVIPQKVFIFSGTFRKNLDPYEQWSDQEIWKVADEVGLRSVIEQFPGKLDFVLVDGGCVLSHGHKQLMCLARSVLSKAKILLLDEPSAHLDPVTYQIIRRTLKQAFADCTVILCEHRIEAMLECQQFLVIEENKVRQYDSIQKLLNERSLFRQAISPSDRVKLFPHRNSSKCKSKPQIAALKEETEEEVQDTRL
T2 sequence (P13569 with tags, fused parts or gaps DEL508-508): as above

EC50 [1] | EC50 [2] | Compound
6.84 nM | 4.05 nM | CCC(c1cn(-c2ccccc2F)nn1)n1c(C#N)c(-c2cnc(C(F)(F)F)nc2)c2c(N)ncnc21 (single isomer, unassigned) [Example 22, 4-Amino-7-{1-[1-(2-fluorophenyl)-1H-1,2,3-triazol-4-yl]propyl}-5-[2-(trifluoromethyl)pyrimidin-5-yl]-7H-pyrrolo[2,3-d]pyrimidine-6-carbonitrile]
47.7 nM | 451 nM | COc1ncccc1-c1cn(Cc2cnn(-c3ccc(C(F)F)cc3)c2)c2ncnc(N)c12 [Example 270, 7-({1-[4-(Difluoromethyl)phenyl]-1H-pyrazol-4-yl}methyl)-5-(2-methoxypyridin-3-yl)-7H-pyrrolo[2,3-d]pyrimidin-4-amine]
33.5 nM | 19.8 nM | CC(c1cn(-c2ccc(F)cc2F)nn1)n1c(C#N)c(-c2cnc(C(F)(F)F)nc2)c2c(N)ncnc21 (single isomer, unassigned) [Example 11, 4-Amino-7-{1-[1-(2,4-difluorophenyl)-1H-1,2,3-triazol-4-yl]ethyl}-5-[2-(trifluoromethyl)pyrimidin-5-yl]-7H-pyrrolo[2,3-d] pyrimidine-6-carbonitrile]
29.7 nM | 26 nM | CCC(c1cn(-c2ccccc2F)nn1)n1cc(-c2cnc(N(C)C)nc2)c2c(N)ncnc21 (single isomer, unassigned; enantiomer 1) [Example 145, 5-[2-(Dimethylamino)pyrimidin-5-yl]-7-{1-[1-(2-fluorophenyl)-1H-1,2,3-triazol-4-yl]propyl}-7H-pyrrolo[2,3-d]pyrimidin-4-amine, enantiomer 1]
239 nM | 433 nM | CCC(c1cn(-c2ccc(F)c(F)c2)nn1)n1cc(-c2cnc(OC)c(F)c2)c2c(N)ncnc21 (single isomer, unassigned; enantiomer 1) [Example 157, 7-{1-[1-(3,4-Difluorophenyl)-1H-1,2,3-triazol-4-yl]propyl}-5-(5-fluoro-6-methoxypyridin-3-yl)-7H-pyrrolo[2,3-d]pyrimidin-4-amine, enantiomer 1]
926 nM | 298 nM | CCC(c1cn(-c2ccc(F)cc2)nn1)n1cc(-c2cncnc2OC)c2c(N)ncnc21 (single isomer, unassigned; enantiomer 2) [Example 150, (−) 7-{1-[1-(4-Fluorophenyl)-1H-1,2,3-triazol-4yl]propyl}-5-(4-methoxypyrimidin-5-yl)-7H-pyrrolo[2,3-d]pyrimidin-4-amine, enantiomer 2]
247 nM | 728 nM | CCC(c1cn(-c2ccc(F)cc2F)nn1)n1cc(-c2cnc(OC)c(F)c2)c2c(N)ncnc21 (single isomer, unassigned; enantiomer 1) [Example 165, 7-{1-[1-(2,4-Difluorophenyl)-1H-1,2,3-triazol-4-yl]propyl}-5-(5-fluoro-6-methoxypyridin-3-yl)-7H-pyrrolo[2,3-d]pyrimidin-4-amine, enantiomer 1]
205 nM | 378 nM | CCC(c1cn(-c2cc(C(F)(F)F)ccn2)nn1)n1cc(-c2cncnc2OC)c2c(N)ncnc21 (centres unmarked) [Example 242, 5-(4-Methoxypyrimidin-5-yl)-7-(1-{1-[4-(trifluoromethyl)pyridin-2-yl]-1H-1,2,3-triazol-4-yl]propyl}-7H-pyrrolo[2,3-d]pyrimidin-4-amine]
1340 nM | 719 nM | COc1ncccc1-c1cn(Cc2nnc(-c3ccccc3F)[nH]2)c2ncnc(N)c12 [Example 253, 7-{[5-(2-Fluorophenyl)-4H-1,2,4-triazol-3-yl]methyl}-5-(2-methoxypyridin-3-yl)-7H-pyrrolo[2,3-d]pyrimidin-4-amine]
187 nM | 234 nM | CCC(c1cn(-c2ccccc2)nn1)n1cc(-c2cnc(C(F)(F)F)nc2)c2c(N)ncnc21 (single isomer, unassigned; enantiomer 2) [Example 130, 7-[1-(1-Phenyl-1H-1,2,3-triazol-4-yl)propyl]-5-[2-(trifluoromethyl)pyrimidin-5-yl]-7H-pyrrolo[2,3-d]pyrimidin-4-amine, enantiomer 2]
10.2 nM | 6.72 nM | CCC(c1nnn(-c2ccc(F)cc2F)c1C)n1cc(-c2cnc(C(F)(F)F)nc2)c2c(N)ncnc21 (single isomer, unassigned) [Example 189]
1640 nM | 2740 nM | CCC(c1cn(-c2ccccc2F)nn1)n1cc(-c2cncnc2OC)c2c(N)nc(C)nc21 (single isomer, unassigned; (+)) [Example 303, (+) 7-{1-[1-(2-Fluorophenyl)-1H-1,2,3-triazol-4-yl]propyl}-5-(4-methoxypyrimidin-5-yl)-2-methyl-7H-pyrrolo[2,3-d]pyrimidin-4-amine]
93.2 nM | 37.3 nM | CCC(c1cn(-c2ccccc2F)nn1)n1cc(-c2cnco2)c2c(N)ncnc21 (centres unmarked) [Example 225, 7-{1-[1-(2-Fluorophenyl)-1H-1,2,3-triazol-4-yl]propyl}-5-(1,3-oxazol-5-yl)-7H-pyrrolo[2,3-d]pyrimidin-4-amine]

Second part, the molecule before the results:

Compound | EC50 [1] | EC50 [2]
CCC(c1cnn(-c2ccc(F)cc2F)c1)n1c(C#N)c(-c2cnc(C(F)(F)F)nc2)c2c(N)ncnc21 (single isomer, unassigned) [Example 21, 4-Amino-7-{1-[1-(2,4-difluorophenyl)-1H-pyrazol-4-yl]propyl}-5-[2-(trifluoromethyl)pyrimidin-5-yl]-7H-pyrrolo[2,3-d]pyrimidine-6-carbonitrile] | 0.45 nM | 0.87 nM
COc1ncccc1-c1cn(Cc2nnc(-c3ccccc3)[nH]2)c2ncnc(N)c12 [Example 272, 5-(2-Methoxypyridin-3-yl)-7-[(5-phenyl-4H-1,2,4-triazol-3-yl)methyl]-7H-pyrrolo[2,3-d]pyrimidin-4-amine] | 833 nM | 398 nM
Nc1ncnc2c1c(-c1ccc(OC3CC3)cc1)cn2Cc1cn(-c2ccccc2F)nn1 [Example 77, 5-[4-(Cyclopropyloxy)phenyl]-7-{[1-(2-fluorophenyl)-1H-1,2,3-triazol-4-yl]methyl}-7H-pyrrolo[2,3-d]pyrimidin-4-amine] | 17.4 nM | 62.5 nM
Nc1ncnc2c1c(-c1cnco1)cn2Cc1cn(-c2ccccc2F)nn1 [Example 197, 7-{[1-(2-Fluorophenyl)-1H-1,2,3-triazol-4-yl]methyl}-5-(1,3-oxazol-5-yl)-7H-pyrrolo[2,3-d]pyrimidin-4-amine] | 811 nM | 254 nM
CC(c1cn(-c2ccccc2F)nn1)n1cc(C2CCC2)c2c(N)ncnc21 (centres unmarked) [Example 247, 5-Cyclobutyl-7-{1-[1-(2-fluorophenyl)-1H-1,2,3-triazol-4-yl]ethyl}-7H-pyrrolo[2,3-d]pyrimidin-4-amine] | 12.4 nM | 16.2 nM
CC(c1cc(-c2ccccc2F)no1)n1cc(-c2ccc(Cl)cc2)c2c(N)ncnc21 (single isomer, unassigned; enantiomer 2) [Example 182, (−)-5-(4-Chlorophenyl)-7-{1-[3-(2-fluorophenyl)-1,2-oxazol-5-yl]ethyl}-7H-pyrrolo[2,3-d]pyrimidin-4-amine, enantiomer 2] | 446 nM | 468 nM
CCC(c1cnn(-c2ccccc2F)c1)n1c(C#N)c(-c2cnc(C(F)(F)F)nc2)c2c(N)ncnc21 (single isomer, unassigned) [Example 3, 4-Amino-7-{1-[1-(2-fluorophenyl)-1H-pyrazol-4-yl]propyl}-5-[2-(trifluoromethyl)pyrimidin-5-yl]-7H-pyrrolo[2,3-d] pyrimidine-6-carbonitrile] | 3.36 nM | 9.17 nM
Cc1c(C(C)n2c(C#N)c(-c3cnc(C(F)(F)F)nc3)c3c(N)ncnc32)nnn1-c1ccccc1F (single isomer, unassigned) [Example 12, 4-amino-7-(1-(1-(2-fluorophenyl)-5-methyl-1H-1,2,3-triazol-4-yl)ethyl)-5-(2-(trifluoromethyl)pyrimidin-5-yl)-7H-pyrrolo[2,3-d]pyrimidine-6-carbonitrile] | 22.5 nM | 6.66 nM
N#Cc1c(-c2ccc(Cl)cc2)c2c(N)ncnc2n1Cc1cn(-c2ccccc2F)nn1 [Example 26, 4-Amino-5-(4-chlorophenyl)-7-{[1-(2-fluorophenyl)-1H-1,2,3-triazol-4-yl]methyl}-7H-pyrrolo[2,3-d]pyrimidine-6-carbonitrile] | 35.7 nM | 130 nM
CC(c1cn(-c2ccccc2F)nn1)n1cc(-c2ccc(OC3CC3)nc2)c2c(N)ncnc21 (centres unmarked) [Example 213, 5-[6-(Cyclopropyloxy)pyridin-3-yl]-7-{1-[1-(2-fluorophenyl)-1H-1,2,3-triazol-4-yl]ethyl}-7H-pyrrolo[2,3-d]pyrimidin-4-amine] | 23.1 nM | 58.6 nM
Nc1ncnc2c1c(-c1ccc(Cl)cc1)cn2Cc1cnc(-c2ccccc2F)[nH]1 [Example 263, 5-(4-Chlorophenyl)-7-{[2-(2-fluorophenyl)-1H-imidazol-5-yl]methyl}-7H-pyrrolo[2,3-d]pyrimidin-4-amine] | 21.6 nM | 199 nM
CC(c1cn(-c2ncccc2F)nn1)n1ccc2c(Nc3ccc(OC4CC4)cc3)ncnc21 (centres unmarked) [Example 288, [4-(Cyclopropyloxy)phenyl]-7-{1-[1-(3-fluoropyridin-2-yl)-1H-1,2,3-triazol-4-yl]ethyl}-7H-pyrrolo[2,3-d]pyrimidin-4-amine] | 39.6 nM | 90.6 nM
